Data from article PMC11530130, “Peripherally restricted PICK1 inhibitor mPD5 ameliorates pain behaviors in murine inflammatory and neuropathic pain models” (JCI Insight, 2024).
Several values for one entry are separate records, joined by “and”; a condition that tells them apart may be missing. Identical values can stand only once.

Columns and labels:
[1] = system: mice, CFA model of inflammatory pain; test: CFA model of inflammatory pain, von Frey, s.c. administration; format: in vivo, mouse; conditions: for paw withdrawal threshold (von Frey), individual mice / von Frey paw withdrawal threshold, ipsilateral paw (Fig S7A) / von Frey paw withdrawal threshold, contralateral paw (Fig S7A): listed as myr; for von Frey paw withdrawal threshold, ipsilateral paw (Fig S7A) / von Frey paw withdrawal threshold, contralateral paw (Fig S7A): CFA mice, individual animals; for von Frey paw withdrawal threshold, ipsilateral paw (Fig S7A): group 10; for von Frey paw withdrawal threshold, contralateral paw (Fig S7A): group 10_contra; for effect on mechanical hypersensitivity (PWT): CFA, male mice
Description: Unless otherwise specified, wild type C57BL/6NRj mice (male and female, aged eight-weeks at the beginning of experiment) were used (Janvier, France). Animals were allowed at least seven days of habituation to the animal facility before initiation of experiment. Mice were group-housed in a temperature-controlled room, maintained on a 12/12hour light/dark cycle (lights on at 6 A.M) with free access to standard rodent chow (Altromin 1342 (Brogaarden, […]
Drug administration and dosing for animal experiments.
All compounds were diluted in PBS or saline (depending on control) and administered through different routes i.t. (7 μL/mouse)), i.p. (10 μL/g) or s.c. (10 μL/g)) as indicated. Doses of mPD5 were based on previous studies with TPD5 (6) with a subcutaneous dose-range included in the CFA studies further guiding dose selection for SNI, STZ and CIBP studies. Pregabalin dose was chosen based on previous experience from Phenotype Expertise (Marseilles, France). In the CIBP model, a dose of […] morphine was chosen to avoid hyperactivity, though known to provide only partial pain relief in this model. In remaining experiments, 5 mg/kg morphine was chosen, known to provide full pain relief, except for the conditioned place preference experiment, where 10 mg/kg was used instead in accordance with literature. […]
µL of IS1 (internal standard in MeOH (Labetalol & tolbutamide & Verapamil & dexamethasone & glyburide & Celecoxib 100 ng/mL for each)) and the mixture was vortexed for 10 min at 800 rpm and centrifuged for 15 min at 3220 × g at 4 ℃. An aliquot of 65 µL supernatant was transferred to a clean 96-well plate and centrifuged for 5 min at 3220 × g at 4 ℃, then the supernatant was directly injected for LC-MS/MS analysis. Plasma half-lives were determined from three points in the elimination phase. In a separate experiment, biodistribution was assessed (plasma, CSF, spinal cord, whole brain) at two hours after single dose of 10 µmol/kg or one hour after last injection in the repeated administration paradigm (10 µmol/kg followed by four s.c. administrations of 2 µmol/kg with one hour between). At these times, plasma levels were similar between the two paradigms. Plasma, CSF, and tissue samples (kept at 4 ℃) were processed and analysed as described above.
Concentration 10 µmol/kg: Wild type mice were habituated to the experimental room for a minimum of 60 min before initiation of the experiment. Female and male mice were run on separate days. Mice were injected s.c. with 10 μmol/kg mPD5 or sterile PBS directly before being placed in open field boxes (40 cm x 40 cm x 80 cm) for 2.5 hours with up to four mice in boxes at any one time. A video camera placed above the open field recorded the animals’ behaviour and Ethovision XT 13 (Noldus) was used to track the distance travelled by the […]
Concentration 30 + 50 µmol/kg: Animals were habituated to the experimental room for a minimum of 60 min before initiation of the experiment. At initiation of experiment, the mice (all male) were injected subcutaneously (s.c.) with mPD5 (30 or 50 μmol/kg, pH adjusted to approximately 7 with 5 M NaOH) or 0.9 % saline (B.Braun, Germany) and left in their home cage for 60 min. After exactly one hour, the mice were placed in an open field (40 cm x 40 cm x 80 cm) for 60 min. A video camera placed above the open field recorded the animals’ […]
animal. The experiment was run in cohort with Figure 2B+C of (9)).
Induction of inflammatory pain (CFA model).
Injury was induced on the right hind paw, whereas the contralateral left hind paw was used as internal control of the C57BL/6J male and female mice (Janvier, France). The inflammatory pain was induced by injection of 50 μL undiluted Complete Freund’s Adjuvant (CFA) (F5881, Sigma) unilaterally into the intraplantar surface of the right hind paw, whereas control mice were injected with the same amount of 0.9 % saline (B. Braun, Germany). All intraplantar injections were performed with an insulin needle (0.3 mL BD Micro-Fine) while the animal […]

[2] = Plasma exposure after repeated s.c. administration (10 + 2 + 2 + 2 + 2 μmol/kg), LC-MS/MS; format: in vivo, mouse; conditions: 10µmol/kg repeated
[3] = 1 hr post myr injection on day 2
[4] = 5 hrs post myr injection on day 2
[5] = 25 hrs post myr injection on day 2
[6] = day 2 after CFA injection (before dosing)

Structure (SMILES): CCCCCCCCCCCCCC(=O)N(CCOCCOCCC(=O)N[C@@H](Cc1c[nH]cn1)C(=O)N[C@@H](Cc1c[nH]c2ccccc12)C(=O)N[C@@H](CC(C)C)C(=O)N[C@@H](CCCCN)C(=O)N[C@H](C(=O)O)C(C)C)CCOCCOCCC(=O)N[C@@H](Cc1c[nH]cn1)C(=O)N[C@@H](Cc1c[nH]c2ccccc12)C(=O)N[C@@H](CC(C)C)C(=O)N[C@@H](CCCCN)C(=O)N[C@H](C(=O)O)C(C)C [mPD5, myristoyl-NPEG4-(HWLKV)2]
- paw withdrawal threshold (von Frey), individual mice ([1]; CFA day 2, s.c. 50 μmol/kg, contralateral paw, 1 hr post injection): 1 (3×) and 2 (3×)
- paw withdrawal threshold (von Frey), individual mice ([1]; CFA day 2, s.c. 50 μmol/kg, contralateral paw, 5 hrs post injection): 1 (3×) and 1.4 (3×)
- paw withdrawal threshold (von Frey), individual mice ([1]; CFA day 2, s.c. 50 μmol/kg, contralateral paw, 24 hrs post injection): 1.4 (2×) and 2 (3×) and 1
- paw withdrawal threshold (von Frey), individual mice ([1]; CFA day 2, s.c. 50 μmol/kg, contralateral paw, 262 hrs post injection): 1 and 2 (2×) and 1.4 (3×)
- paw withdrawal threshold (von Frey), individual mice ([1]; CFA day 2, s.c. 50 μmol/kg, ipsilateral paw, 1 hr post injection): 0.4 and 1.4 and 2 (2×) and 1 (2×)
- paw withdrawal threshold (von Frey), individual mice ([1]; CFA day 2, s.c. 50 μmol/kg, ipsilateral paw, 5 hrs post injection): 0.6 and 0.4 (2×) and 1 and 0.16 (2×)
- paw withdrawal threshold (von Frey), individual mice ([1]; CFA day 2, s.c. 50 μmol/kg, ipsilateral paw, 24 hrs post injection): 0.07 and 0.16 (2×) and 0.4 (3×)
- paw withdrawal threshold (von Frey), individual mice ([1]; CFA day 2, s.c. 50 μmol/kg, ipsilateral paw, 262 hrs post injection): 1 (2×) and 1.4 (3×) and 0.6
- paw withdrawal threshold (von Frey), individual mice ([1]; CFA dose range, s.c. 2 μmol/kg, contralateral paw, 1 hr post injection): 2 (4×) and 1.4
- paw withdrawal threshold (von Frey), individual mice ([1]; CFA dose range, s.c. 2 μmol/kg, ipsilateral paw, 1 hr post injection): 0.6 and 0.16 and 1 and 1.4 and 0.4
- paw withdrawal threshold (von Frey), individual mice ([1]; CFA dose range, s.c. 2 μmol/kg, ipsilateral paw, 5 hrs post injection): 0.4 and 0.16 (3×) and 0.6
- paw withdrawal threshold (von Frey), individual mice ([1]; CFA dose range, s.c. 10 μmol/kg, contralateral paw, 1 hr post injection): 1.4 (4×) and 2 (2×)
- paw withdrawal threshold (von Frey), individual mice ([1]; CFA dose range, s.c. 10 μmol/kg, contralateral paw, 5 hrs post injection): 1 (2×) and 1.4
- paw withdrawal threshold (von Frey), individual mice ([1]; CFA dose range, s.c. 10 μmol/kg, ipsilateral paw, 1 hr post injection): 0.4 and 0.6 (2×) and 1.4 and 0.16 and 1
- paw withdrawal threshold (von Frey), individual mice ([1]; CFA dose range, s.c. 10 μmol/kg, ipsilateral paw, 5 hrs post injection): 0.16 and 0.6 (2×) and 1.4
- paw withdrawal threshold (von Frey), individual mice ([1]; CFA dose range, s.c. 50 μmol/kg, contralateral paw, 1 hr post injection): 1.4 (4×) and 2
- paw withdrawal threshold (von Frey), individual mice ([1]; CFA dose range, s.c. 50 μmol/kg, contralateral paw, 5 hrs post injection): 2 (3×) and 1.4 (2×)
- paw withdrawal threshold (von Frey), individual mice ([1]; CFA dose range, s.c. 50 μmol/kg, ipsilateral paw, 1 hr post injection): 1.4 (3×) and 0.6 (2×)
- paw withdrawal threshold (von Frey), individual mice ([1]; CFA dose range, s.c. 50 μmol/kg, ipsilateral paw, 5 hrs post injection): 0.6 and 1 (2×)
- von Frey paw withdrawal threshold, ipsilateral paw (Fig S7A) [1, 3]: 0.6 (2×) and 1 (3×) and 0.4
- von Frey paw withdrawal threshold, ipsilateral paw (Fig S7A) [1, 4]: 0.16 (2×) and 0.07 (2×) and 0.4 and 0.6
- von Frey paw withdrawal threshold, ipsilateral paw (Fig S7A) [1, 5]: 0.07 (4×) and 0.16 (2×)
- von Frey paw withdrawal threshold, ipsilateral paw (Fig S7A) ([1]; baseline before CFA injection): 1 and 1.4 (5×)
- von Frey paw withdrawal threshold, ipsilateral paw (Fig S7A) [1, 6]: 0.07 (4×) and 0.16 (2×)
- von Frey paw withdrawal threshold, contralateral paw (Fig S7A) [1, 3]: 1 (4×) and 1.4 and 0.6
- von Frey paw withdrawal threshold, contralateral paw (Fig S7A) [1, 4]: 1 (4×) and 0.6 and 1.4
- von Frey paw withdrawal threshold, contralateral paw (Fig S7A) [1, 5]: 0.6 (2×) and 1 (4×)
- von Frey paw withdrawal threshold, contralateral paw (Fig S7A) ([1]; baseline before CFA injection): 1.4 (5×) and 1
- von Frey paw withdrawal threshold, contralateral paw (Fig S7A) [1, 6]: 1 (3×) and 0.6 (2×) and 1.4
- effect on mechanical hypersensitivity (PWT) ([1]; s.c. 50 μmol/kg, 5 hours after injection): significant reduction of mechanical hypersensitivity
- effect on mechanical hypersensitivity (PWT) ([1]; s.c. 2, 10 and 50 μmol/kg (all doses), 1 hour after administration): significant reversion of mechanical hypersensitivity
- effect on mechanical hypersensitivity (PWT) ([1]; single s.c. 50 μmol/kg, 1 hour after injection): reverted hypersensitivity
- reversion of CFA-induced mechanical hypersensitivity in female mice ([1]; female mice, s.c. 10 μmol/kg): confirmed
- Plasma exposure, Fig 7B, individual mice [2]: 2068 and 1389 and 1614
